Reference: BindingDB's records for patent US11542283 (Jiangsu Chia Tai Fenghai Pharmaceutical, 2023)

Target: T1, Proteasome subunit beta type-5 (Homo sapiens, UniProt P28074)
T1 sequence (P28074 whole entry): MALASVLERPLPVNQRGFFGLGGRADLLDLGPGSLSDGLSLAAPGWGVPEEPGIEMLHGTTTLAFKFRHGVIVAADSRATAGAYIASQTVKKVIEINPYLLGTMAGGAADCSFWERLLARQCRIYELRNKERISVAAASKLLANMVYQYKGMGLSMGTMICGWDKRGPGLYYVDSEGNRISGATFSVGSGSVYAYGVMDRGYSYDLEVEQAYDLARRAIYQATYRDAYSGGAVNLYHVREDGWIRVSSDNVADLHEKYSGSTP
Assay: Proteasome Inhibitory Activity
From the text: The proteasome used in the present invention is human erythrocyte 20S proteasome, and the enzyme, fluorescent substrate and test buffer are all purchased from Enzo.

IC50	SMILES
4.86 nM	CSC[C@H](NC(=O)c1cc(Cl)ccc1Cl)C(=O)N[C@@H](CC(C)C)B(O)O [US11542283, Compound IV-9]
7.47 nM	CC(C)C[C@H](NC(=O)CNC(=O)c1cc(Cl)ccc1Cl)B1OC(=O)CC(CC(=O)O)(C(=O)O)O1 (some centres not stated) [US11542283, Compound MLN-9708]
